The target of assay [1] is T1, Neurotensin receptor type 1 (Homo sapiens, UniProt P30989). Briefly: Displacement of [3H]neurotensin from human NTS1 receptor expressed in CHOK1 cells after 60 mins by beta plate liquid scintillation counter. Type of assay: cell-based.
Assay [2] deals with T1, Neurotensin receptor type 1. The assay is described as follows: Antagonist activity at human NTS1 receptor expressed in CHOK1 cells assessed as inhibition of intracellular calcium elevation pretreated 30 mins before with SR-48692 by FLIPR assay. Type of assay: functional, cell-based, CHO-K1. For orientation: Calcium assays in cells follow changes in intracellular calcium, usually with a dye or a luminescent sensor.

pIC50, pKi: −log10 of the molar value. Activity calls are given as the source filed them. The calls are words filed in the database; no cut-off is given here.

Among the data in ChEMBL document CHEMBL1143436 (Bioorg Med Chem Lett, 2008) are Activity, IC50 and Ki values, retold here.

T1 sequence (P30989 whole entry): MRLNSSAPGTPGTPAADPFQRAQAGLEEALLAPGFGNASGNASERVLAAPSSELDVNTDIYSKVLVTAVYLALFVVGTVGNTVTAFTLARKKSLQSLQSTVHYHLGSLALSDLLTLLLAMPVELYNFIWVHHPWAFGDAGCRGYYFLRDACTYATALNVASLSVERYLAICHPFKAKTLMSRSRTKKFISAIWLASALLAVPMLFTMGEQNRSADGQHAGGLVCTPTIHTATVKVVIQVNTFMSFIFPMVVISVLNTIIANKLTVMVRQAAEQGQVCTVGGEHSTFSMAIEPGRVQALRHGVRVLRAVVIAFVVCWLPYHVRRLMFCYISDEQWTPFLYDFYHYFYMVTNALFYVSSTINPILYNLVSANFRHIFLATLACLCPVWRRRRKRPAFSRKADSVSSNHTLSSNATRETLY

Broadly, the pIC50 is the negative decadic logarithm of the IC50, by convention in mol/L. Consider `CC(C)CC(NC(=O)OCC1c2ccccc2-c2ccccc21)C(=O)O` (centres undefined), for which, in assay [1] (CHO-K1), the outcome was inactive. For the same molecule, the pIC50 in assay [2] is 8.42.
A word on the pKi: it is the Ki on a negative log10 scale, so that one unit is a factor of ten. Lower therefore signals a high Ki. Take `CC(C)C[C@@H](NC(=O)Cn1ccc2cc(NS(=O)(=O)c3cccc4cccnc34)ccc21)C(=O)O`: the pKi in assay [1] is 6.26. In addition, the pIC50 in assay [2] was 8.42.
